Source: patent US20140205569A1, “METHODS AND COMPOSITIONS FOR PREVENTING AND TREATING OSTEOARTHRITIS” (priority 2010, published 2014)

Legend:
NF-kB = NF-kB activation measured as SEAP release in HT-29 clone 34 cells with or without rhTNF-alpha; assay type: cell-based; settings: general statement of the discovery
Description: HT-29 clone 34 cells were seeded at 2.0×10^5 cells/well in DMEM with 5% FCS and 1% PS. Cells were incubated for 24 hours at 37° C. at 5% CO2 with or without rhTNF-alpha with dihomo-gamma-linolenic acid (0.1, 0.3, 0.5, 0.7 or 1 mg/ml) in ethanol as a vehicle. NF-kB activity was measured as SEAP release using a Phospha-Light™ System (Applied Biosystems, Bedford, Mass.) per manufacturer's directions.

Prostaglandin E2 (PGE2) = experiment: PGE2 levels in chondrocyte media by enzyme immunoassay, per cell; assay type: cell-based, canine; settings: for PGE2 levels from chondrocyte media, Avg / PGE2 levels from chondrocyte media: fatty acid 50 μM; for PGE2 levels from chondrocyte media, Avg: average of four chondrocyte batches
Description: Canine cartilage was digested in a 37° C. shaking water bath using the following enzymes: trypsin (0.25%) for 25 minutes, hyaluronidase (150U/ml) for 1 hour, and collagenase (0.78%) overnight. Digested cartilage was filtered to obtain chondrocytes. Chondrocytes were expanded in monolayer culture with complete media. Composition of the complete media is Dulbecco's Modified Eagle Medium (DMEM)/F12 supplemented with 10% FBS, 1% P/S (100 U/mL penicillin and 100 μg/mL streptomycin) and 50 μg/ml ascorbic acid. Reaching subconfluence, chondrocytes were detached with 0.05% trypsin and cryopreserved. After cryopreservation, canine chondrocytes were expanded in a monolayer and, after reaching subconfluence, cells were trypsinized and subsequently immobilized in alginate beads. Cells suspended in complete media +3% alginate were dropped from a 18-gauge syringe into calcium chloride (120 mM) to form “beads.” Chondrocyte beads were cultured in complete media and media was changed every 2 or 3 days. At the end of the treatment, the chondrocyte beads were dissolved in sodium citrate (55 mM in 0.15 M NaCl). Suspensions were centrifuged at 2620 rpm for 5 minutes. Cells were washed with phosphate buffer and centrifuged again at 2620 rpm for 5 minutes. One mL RNAqueous™ lysis binding solution (Ambion, Austin, Tex.) was added to the isolated canine chondrocyte pellet, mixed thoroughly and stored at −80° C. until RNA isolation could be performed. Chondrocytes were enriched with a fatty acid at 50 μM just after they were enclosed in beads. FBS and ethanol were used as a vehicle. Once the enriched media were prepared, ethanol represented less than 0.1%. Cells were enriched with either arachidonic acid (AA) and dihomo-γ-linolenic acid for 3 weeks total in complete media. The 3rd week the enriched media also contained 10% stimulated monocyte neutrophil conditioned media (SMNCM). Chondrocyte beads were dissolved at the end of the experiment. Cell media was aliquoted in micro-centrifuge tubes and stored at −80° C. until analysis. Cells were enriched with either arachidonic acid (AA) and dihomo-γ-linolenic acid. Prostaglandin E2 (PGE2) levels were determined using Amersham Prostaglandin Prostaglandin E2 Biotrak Enzyme Immunoassay (EIA, GE Healthcare). Before performing the assay, media samples were thawed then diluted 50 to 250 times in assay buffer. Standards and samples were run in duplicate. The cell suspensions obtained after dissolving the alginate beads were centrifuged. After removing the supernatant, each cell pellet was resuspended in 1 ml of phosphate buffered saline. From each sample, 10 μL was added to the same volume of trypan blue stain before counting with a hemocytometer.

canine chondrocytes = experiment: Quantitative PCR expression of osteoarthritis-related genes in fatty-acid-enriched canine chondrocytes in alginate beads, stimulated with SMNCM; assay type: cell-based; settings: fatty acid 50 μM, 3 weeks, 3rd week with 10% SMNCM; normalized to cyclophilin A; N=4
Description: Canine cartilage was digested in a 37° C. shaking water bath using the following enzymes: trypsin (0.25%) for 25 minutes, hyaluronidase (150U/ml) for 1 hour, and collagenase (0.78%) overnight. Digested cartilage was filtered to obtain chondrocytes. Chondrocytes were expanded in monolayer culture with complete media. Composition of the complete media is Dulbecco's Modified Eagle Medium (DMEM)/F12 supplemented with 10% FBS, 1% P/S (100 U/mL penicillin and 100 μg/mL streptomycin) and 50 μg/ml ascorbic acid. Reaching subconfluence, chondrocytes were detached with 0.05% trypsin and cryopreserved. After cryopreservation, canine chondrocytes were expanded in a monolayer and, after reaching subconfluence, cells were trypsinized and subsequently immobilized in alginate beads. Cells suspended in complete media +3% alginate were dropped from a 18-gauge syringe into calcium chloride (120 mM) to form “beads.” Chondrocyte beads were cultured in complete media and media was changed every 2 or 3 days. At the end of the treatment, the chondrocyte beads were dissolved in sodium citrate (55 mM in 0.15 M NaCl). Suspensions were centrifuged at 2620 rpm for 5 minutes. Cells were washed with phosphate buffer and centrifuged again at 2620 rpm for 5 minutes. One mL RNAqueous™ lysis binding solution (Ambion, Austin, Tex.) was added to the isolated canine chondrocyte pellet, mixed thoroughly and stored at −80° C. until RNA isolation could be performed.
Samples were vortexed and homogenized using a Quiashredder column (Qiagen, Valencia, Calif.) according to manufacturer's directions. The homogenized lysate was collected and 1 equal volume of 64% ethanol was added to it. This mixture was then applied to an RNAqueous™ filter cartridge, 700 uL at a time, and centrifuged for 1 minute at 10,000 rpm. The cartridge was washed using 700 uL wash solution #1 and 500 uL wash solution #2/3 with centrifugation at 10,000 rpm for 1 minute for each wash. The filter cartridge was dried by centrifugation (10,000 rpm) for 1 minute. RNA was eluted 3 times by centrifugation (as above) using 30 uL aliquots of 95-100° C. elution solution. The resulting RNA was DNAse-treated and quantitated in a Beckman DU 640B spectrophotometer (Beckman Coulter, Inc., Brea, Calif.) at 260 nm. Additionally, quantity and quality were assessed using a bioanalyzer (Agilent, Santa Clara, Calif.) according to manufacturer's directions.
Stimulated monocyte neutrophil conditioned media (SMNCM) was made by isolating monocytes and neutrophils from canine whole blood using NycoPrep™ according to the manufacturer's directions. Monocytes and neutrophils were stimulated with lipopolysaccharide (20 ng/mL) for 72 hours. The resulting supernatant was used as SMNCM in cell culture experimentation (SMNCM made up 10% of media used during experimentation and is kept in frozen aliquots).
Chondrocytes were enriched with a fatty acid at 50 μM just after they were enclosed in beads. FBS and ethanol were used as a vehicle. Once the enriched media were prepared, ethanol represented less than 0.1%. Cells were enriched with either arachidonic acid (AA) and dihomo-γ-linolenic acid for 3 weeks total in complete media. The 3rd week the enriched media also contained 10% stimulated monocyte neutrophil conditioned media (SMNCM). Chondrocyte beads were dissolved at the end of the experiment.
All samples were run singularly against each primer/probe set to determine what standard curve should be used. Standard curves were generated using serial dilutions of liver RNA or RNA from experimental samples. […] Values were normalized to cyclophilin A levels as determined by quantitative PCR. Inductions were calculated from each of the lowest sample's normalized value. N=4 for all treatments.
Values represent relative average induction values. […]

| SMILES | PGE2 levels from chondrocyte media, Avg (Prostaglandin E2 (PGE2)) | PGE2 levels from chondrocyte media (Prostaglandin E2 (PGE2); chondrocyte batch 1084) | PGE2 levels from chondrocyte media (Prostaglandin E2 (PGE2); chondrocyte batch 31010) | PGE2 levels from chondrocyte media (Prostaglandin E2 (PGE2); chondrocyte batch 31510) | PGE2 levels from chondrocyte media (Prostaglandin E2 (PGE2); chondrocyte batch 41210) | Quantitative PCR expression value 2252B (relative average induction) (canine chondrocytes) | Quantitative PCR expression value ADAMTS-4 (relative average induction) (canine chondrocytes) | Quantitative PCR expression value ADAMTS-5 (relative average induction) (canine chondrocytes) | Quantitative PCR expression value CYTL-1 (relative average induction) (canine chondrocytes) | Quantitative PCR expression value GRIA-4 (relative average induction) (canine chondrocytes) | Quantitative PCR expression value IGF-2 (relative average induction) (canine chondrocytes) | Quantitative PCR expression value IL-1 (relative average induction) (canine chondrocytes) | Quantitative PCR expression value IL-6 (relative average induction) (canine chondrocytes) | Quantitative PCR expression value IL-8 (relative average induction) (canine chondrocytes) | Quantitative PCR expression value MMP-2 (relative average induction) (canine chondrocytes) | Quantitative PCR expression value MMP-9 (relative average induction) (canine chondrocytes) | Quantitative PCR expression value MMP-13 (relative average induction) (canine chondrocytes) | Quantitative PCR expression value PC-2A (relative average induction) (canine chondrocytes) | Quantitative PCR expression value SOX-9 (relative average induction) (canine chondrocytes) | Quantitative PCR expression value TIMP-1 (relative average induction) (canine chondrocytes) | other results |
| --- | --- | --- | --- | --- | --- | --- | --- | --- | --- | --- | --- | --- | --- | --- | --- | --- | --- | --- | --- | --- | --- |
| CCCCC/C=C\C/C=C\C/C=C\CCCCCCC(=O)O [DGLA, dihomo-γ-linolenic acid] | 598 fg/ml/cell | 800 fg/ml/cell | 331 fg/ml/cell | 182 fg/ml/cell | 1080 fg/ml/cell | 4.7 | 1.6 | 2.8 | 18.0 | 4.2 | 15.9 | 2.4 | 3.9 | 3.1 | 1.6 | 22.9 | 2.1 | 5.2 | 1.9 | 3.7 | Effect on NF-kB activation (in words) (NF-kB): inhibit NF-kB activation; PGE2 % Decrease (Prostaglandin E2 (PGE2); 50 μM DGLA versus 50 μM AA, chondrocyte batch 1084): 16%; PGE2 % Decrease (Prostaglandin E2 (PGE2); 50 μM DGLA versus 50 μM AA, chondrocyte batch 31010): 30%; PGE2 % Decrease (Prostaglandin E2 (PGE2); 50 μM DGLA versus 50 μM AA, chondrocyte batch 31510): 34%; PGE2 % Decrease (Prostaglandin E2 (PGE2); 50 μM DGLA versus 50 μM AA, chondrocyte batch 41210): 73%; PGE2 % Decrease, Avg (Prostaglandin E2 (PGE2); 50 μM DGLA versus 50 μM AA, from the batch averages): 58%; Effect on inflammatory mediators (in words) (Prostaglandin E2 (PGE2); general statement of the discovery): reduce inflammatory mediators; Quantitative PCR expression value TIMP-2 (relative average induction) (canine chondrocytes): 1.6; Quantitative PCR expression value TNF-alpha (relative average induction) (canine chondrocytes): 18.8 |
| CCCCC/C=C\C/C=C\C/C=C\C/C=C\CCCC(=O)O [AA, arachidonic acid, reference compound] | 1414 fg/ml/cell | 957 fg/ml/cell | 473 fg/ml/cell | 274 fg/ml/cell | 3950 fg/ml/cell | 4.3 | 1.4 | 3.0 | 18.1 | 5.0 | 14.7 | 4.1 | 4.8 | 3.0 | 1.8 | 9.5 | 2.7 | 4.5 | 1.9 | 3.5 | Quantitative PCR expression value TIMP-2 (relative average induction) (canine chondrocytes): 1.6; Quantitative PCR expression value TNF-alpha (relative average induction) (canine chondrocytes): 26.4 |
